In ChEMBL document CHEMBL1817621, “SAR studies of acidic dual γ-secretase/PPARγ modulators” (Bioorg Med Chem, 2011):
Calls of active or inactive are those of the source. The rule behind the calls is not given here.

Target: T1, Peroxisome proliferator-activated receptor alpha (Homo sapiens) (UniProt Q07869)
T1 sequence (whole entry): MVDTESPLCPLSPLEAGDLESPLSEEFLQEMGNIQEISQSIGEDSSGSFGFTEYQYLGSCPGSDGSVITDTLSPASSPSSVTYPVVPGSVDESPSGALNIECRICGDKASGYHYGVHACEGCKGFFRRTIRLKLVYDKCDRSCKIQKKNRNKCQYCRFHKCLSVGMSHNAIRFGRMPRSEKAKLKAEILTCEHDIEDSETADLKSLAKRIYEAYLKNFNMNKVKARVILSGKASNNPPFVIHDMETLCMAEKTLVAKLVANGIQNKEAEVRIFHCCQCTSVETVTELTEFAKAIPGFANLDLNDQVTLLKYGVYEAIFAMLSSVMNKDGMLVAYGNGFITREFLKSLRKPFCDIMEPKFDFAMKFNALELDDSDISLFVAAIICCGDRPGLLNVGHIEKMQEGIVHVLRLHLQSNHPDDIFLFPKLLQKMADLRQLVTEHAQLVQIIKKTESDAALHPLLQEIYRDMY
Assay: Modulation of human PPARalpha-LBD expressed in african green monkey COS7 cells co-transfected with Gal4 assessed as activation of transactivation activity at 10 uM by luciferase assay
Assay type: cell-based
Conditions: COS-7

| Structure (SMILES) | Activity |
| --- | --- |
| CCCCC(Cc1cccc(OCCc2ccccc2)c1OCCc1ccccc1)C(=O)O (centres undefined) | inactive |
| CCCCC(Cc1ccc(OCCc2ccccc2)c(OCCc2ccccc2)c1)C(=O)O (centres undefined) | inactive |
| CCCCC(Sc1cc(OCCc2ccccc2)cc(OCCc2ccccc2)c1)C(=O)O (centres undefined) | inactive |

Target: T2, Peroxisome proliferator-activated receptor delta (Homo sapiens) (UniProt Q03181)
T2 sequence (whole entry): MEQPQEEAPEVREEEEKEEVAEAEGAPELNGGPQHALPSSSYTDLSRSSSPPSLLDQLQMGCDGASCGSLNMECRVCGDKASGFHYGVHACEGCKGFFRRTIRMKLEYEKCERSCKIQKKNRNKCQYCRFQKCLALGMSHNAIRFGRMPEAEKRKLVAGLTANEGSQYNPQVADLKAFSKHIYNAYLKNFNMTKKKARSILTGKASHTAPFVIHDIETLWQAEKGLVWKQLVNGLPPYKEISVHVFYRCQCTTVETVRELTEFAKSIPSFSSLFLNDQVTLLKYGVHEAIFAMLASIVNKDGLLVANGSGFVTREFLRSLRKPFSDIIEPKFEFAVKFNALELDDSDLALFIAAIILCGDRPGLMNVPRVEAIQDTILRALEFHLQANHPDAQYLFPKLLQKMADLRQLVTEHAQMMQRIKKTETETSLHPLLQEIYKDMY
Assay: Modulation of human PPARdelta-LBD expressed in african green monkey COS7 cells co-transfected with Gal4 assessed as activation of transactivation activity at 10 uM by luciferase assay
Assay type: cell-based
Conditions: COS-7

| Structure (SMILES) | Activity |
| --- | --- |
| CCCCC(Cc1cccc(OCCc2ccccc2)c1OCCc1ccccc1)C(=O)O (centres undefined) | inactive |
| CCCCC(Cc1ccc(OCCc2ccccc2)c(OCCc2ccccc2)c1)C(=O)O (centres undefined) | inactive |
| CCCCC(Sc1cc(OCCc2ccccc2)cc(OCCc2ccccc2)c1)C(=O)O (centres undefined) | inactive |

Target: T3, Peroxisome proliferator-activated receptor gamma (Homo sapiens, UniProt P37231)
T3 sequence (P37231 whole entry): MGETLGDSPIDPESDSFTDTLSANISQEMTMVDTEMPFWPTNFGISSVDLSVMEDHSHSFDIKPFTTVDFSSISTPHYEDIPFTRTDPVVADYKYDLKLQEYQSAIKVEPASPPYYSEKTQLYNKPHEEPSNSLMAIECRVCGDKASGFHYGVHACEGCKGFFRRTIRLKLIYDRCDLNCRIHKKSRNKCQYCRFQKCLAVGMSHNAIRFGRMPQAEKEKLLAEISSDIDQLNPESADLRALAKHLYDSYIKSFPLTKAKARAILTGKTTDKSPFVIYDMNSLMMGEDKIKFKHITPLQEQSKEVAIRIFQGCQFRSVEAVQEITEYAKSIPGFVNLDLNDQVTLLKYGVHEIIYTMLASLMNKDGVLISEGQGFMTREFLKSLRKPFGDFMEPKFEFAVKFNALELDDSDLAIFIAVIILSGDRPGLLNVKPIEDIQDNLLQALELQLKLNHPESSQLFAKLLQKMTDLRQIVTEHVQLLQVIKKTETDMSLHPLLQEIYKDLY
Assay: Modulation of human PPARgamma-LBD expressed in african green monkey COS7 cells co-transfected with Gal4 assessed as activation of transactivation activity by luciferase assay
Assay type: cell-based, COS-7
Conditions: not given

| Structure (SMILES) | EC50 [µM] |
| --- | --- |
| CCCCC(Cc1cccc(OCCc2ccccc2)c1OCCc1ccccc1)C(=O)O (centres undefined) | 3.7 |
| CCCCC(Cc1ccc(OCCc2ccccc2)c(OCCc2ccccc2)c1)C(=O)O (centres undefined) | 2.2 |
| CCCCC(Sc1cc(OCCc2ccccc2)cc(OCCc2ccccc2)c1)C(=O)O (centres undefined) | 3.4 |

Target: T4, Peroxisome proliferator-activated receptor gamma (Homo sapiens) (UniProt P37231)
T4 sequence (whole entry): T3 sequence (P37231 whole entry)
Assay: Modulation of human PPARgamma-LBD expressed in african green monkey COS7 cells co-transfected with Gal4 assessed as activation of transactivation activity by luciferase assay relative to pioglitazone
Assay type: cell-based
Conditions: COS-7

| Structure (SMILES) | Emax [%] |
| --- | --- |
| CCCCC(Cc1cccc(OCCc2ccccc2)c1OCCc1ccccc1)C(=O)O (centres undefined) | 79 |
| CCCCC(Cc1ccc(OCCc2ccccc2)c(OCCc2ccccc2)c1)C(=O)O (centres undefined) | 100 |
| CCCCC(Sc1cc(OCCc2ccccc2)cc(OCCc2ccccc2)c1)C(=O)O (centres undefined) | 73 |

System: not listed separately
Assay: Modulation of gamma-secretase expressed in CHO cells co-expressing human APP and wild type human presenilin-1 assessed as inhibition of amyloid beta42 production by ELISA
Assay type: cell-based
Conditions: not given

| Structure (SMILES) | IC50 [µM] |
| --- | --- |
| CCCCC(Sc1nc(OCCC2CCCCC2)cc(OCCC2CCCCC2)n1)C(=O)O (centres undefined) | 6 |
| CCCCC(Cc1cccc(OCCc2ccccc2)c1OCCc1ccccc1)C(=O)O (centres undefined) | > 40 |
| CCCCC(Cc1ccc(OCCc2ccccc2)c(OCCc2ccccc2)c1)C(=O)O (centres undefined) | > 40 |
| CCCCC(Sc1cc(OCCc2ccccc2)cc(OCCc2ccccc2)c1)C(=O)O (centres undefined) | 32.7 |

System: not listed separately
Assay: Modulation of gamma-secretase expressed in CHO cells co-expressing human APP and wild type human presenilin-1 assessed as increase of amyloid beta38 production by ELISA
Assay type: cell-based
Conditions: not given

| Structure (SMILES) | EC50 [µM] |
| --- | --- |
| CCCCC(Cc1cccc(OCCc2ccccc2)c1OCCc1ccccc1)C(=O)O (centres undefined) | > 40 |
| CCCCC(Cc1ccc(OCCc2ccccc2)c(OCCc2ccccc2)c1)C(=O)O (centres undefined) | > 40 |
| CCCCC(Sc1cc(OCCc2ccccc2)cc(OCCc2ccccc2)c1)C(=O)O (centres undefined) | 22.2 |

Target: T5, Prostaglandin G/H synthase 1 (Ovis aries) (UniProt P05979)
T5 sequence (whole entry): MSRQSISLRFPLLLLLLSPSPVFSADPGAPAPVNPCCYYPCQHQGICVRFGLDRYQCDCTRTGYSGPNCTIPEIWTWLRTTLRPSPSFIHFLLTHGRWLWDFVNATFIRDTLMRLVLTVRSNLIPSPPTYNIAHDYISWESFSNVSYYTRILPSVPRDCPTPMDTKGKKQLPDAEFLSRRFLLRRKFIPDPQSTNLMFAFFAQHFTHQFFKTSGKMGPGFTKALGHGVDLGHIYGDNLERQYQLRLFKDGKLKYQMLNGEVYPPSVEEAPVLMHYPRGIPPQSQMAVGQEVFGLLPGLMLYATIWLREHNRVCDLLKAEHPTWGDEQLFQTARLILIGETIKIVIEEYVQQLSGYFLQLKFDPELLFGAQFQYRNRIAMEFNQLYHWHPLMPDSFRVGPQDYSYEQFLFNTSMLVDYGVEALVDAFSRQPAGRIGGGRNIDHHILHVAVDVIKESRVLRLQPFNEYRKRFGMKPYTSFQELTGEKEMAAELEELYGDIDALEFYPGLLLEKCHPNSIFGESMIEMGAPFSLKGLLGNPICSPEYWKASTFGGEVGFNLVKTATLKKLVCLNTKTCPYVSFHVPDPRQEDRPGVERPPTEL
Assay: Inhibition of ovine COX-1 assessed as residual activity by measuring formation of 12-HHT from arachidonic acid at 10 uM by HPLC analysis
Conditions: not given

| Structure (SMILES) | Activity [%] |
| --- | --- |
| CCCCC(Cc1cccc(OCCc2ccccc2)c1OCCc1ccccc1)C(=O)O (centres undefined) | 66.1 |
| CCCCC(Cc1ccc(OCCc2ccccc2)c(OCCc2ccccc2)c1)C(=O)O (centres undefined) | 95.8 |
| CCCCC(Sc1cc(OCCc2ccccc2)cc(OCCc2ccccc2)c1)C(=O)O (centres undefined) | 71.3 |

Target: T6, Prostaglandin G/H synthase 2 (Homo sapiens) (UniProt P35354)
T6 sequence (whole entry): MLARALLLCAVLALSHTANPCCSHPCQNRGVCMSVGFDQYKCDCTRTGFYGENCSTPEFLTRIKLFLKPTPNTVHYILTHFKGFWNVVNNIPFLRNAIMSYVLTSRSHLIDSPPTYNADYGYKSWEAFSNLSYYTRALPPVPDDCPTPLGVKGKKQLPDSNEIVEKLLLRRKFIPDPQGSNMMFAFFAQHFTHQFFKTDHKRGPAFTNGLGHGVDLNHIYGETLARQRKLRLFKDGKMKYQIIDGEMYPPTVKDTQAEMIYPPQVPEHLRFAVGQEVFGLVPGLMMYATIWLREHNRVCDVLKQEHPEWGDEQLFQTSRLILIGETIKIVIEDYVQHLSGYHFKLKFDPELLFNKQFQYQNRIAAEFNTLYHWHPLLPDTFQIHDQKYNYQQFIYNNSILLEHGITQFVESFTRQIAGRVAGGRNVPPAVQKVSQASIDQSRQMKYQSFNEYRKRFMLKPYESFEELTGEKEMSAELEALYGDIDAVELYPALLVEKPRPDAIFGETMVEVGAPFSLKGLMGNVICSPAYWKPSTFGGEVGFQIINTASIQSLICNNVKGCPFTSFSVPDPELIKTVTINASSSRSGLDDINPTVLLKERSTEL
Assay: Inhibition of human recombinant COX-2 assessed as residual activity by measuring formation of 12-HHT from arachidonic acid at 10 uM by HPLC analysis
Conditions: not given

| Structure (SMILES) | Activity [%] |
| --- | --- |
| CCCCC(Cc1cccc(OCCc2ccccc2)c1OCCc1ccccc1)C(=O)O (centres undefined) | 89.6 |
| CCCCC(Cc1ccc(OCCc2ccccc2)c(OCCc2ccccc2)c1)C(=O)O (centres undefined) | 86.4 |
| CCCCC(Sc1cc(OCCc2ccccc2)cc(OCCc2ccccc2)c1)C(=O)O (centres undefined) | 110 |

System: CHO
Assay: Cytotoxicity against CHO cells expressing human APP and wild type human presenilin-1 assessed as reduction of cell viability up to 40 uM after 24 hrs by Alamar blue assay
Assay type: cell-based, Cricetulus griseus
Conditions: chinese hamster

| Structure (SMILES) | Activity |
| --- | --- |
| CCCCC(Sc1nc(OCCC2CCCCC2)cc(OCCC2CCCCC2)n1)C(=O)O (centres undefined) | Non-toxic |
| CCCCC(Cc1cccc(OCCc2ccccc2)c1OCCc1ccccc1)C(=O)O (centres undefined) | Non-toxic |
| CCCCC(Cc1ccc(OCCc2ccccc2)c(OCCc2ccccc2)c1)C(=O)O (centres undefined) | Non-toxic |
| CCCCC(Sc1cc(OCCc2ccccc2)cc(OCCc2ccccc2)c1)C(=O)O (centres undefined) | Non-toxic |
